Source: article PMC12301304 (Frontiers in Pharmacology, 2025)

Key:
CYP1a2 = target: T1, CYP1a2 (Rattus norvegicus, UniProt P04799); parameters: from tissue; host or cells: live male Sprague-Dawley rats (whole animal, mainly liver); details: in vivo
T1 sequence (P04799 1-513): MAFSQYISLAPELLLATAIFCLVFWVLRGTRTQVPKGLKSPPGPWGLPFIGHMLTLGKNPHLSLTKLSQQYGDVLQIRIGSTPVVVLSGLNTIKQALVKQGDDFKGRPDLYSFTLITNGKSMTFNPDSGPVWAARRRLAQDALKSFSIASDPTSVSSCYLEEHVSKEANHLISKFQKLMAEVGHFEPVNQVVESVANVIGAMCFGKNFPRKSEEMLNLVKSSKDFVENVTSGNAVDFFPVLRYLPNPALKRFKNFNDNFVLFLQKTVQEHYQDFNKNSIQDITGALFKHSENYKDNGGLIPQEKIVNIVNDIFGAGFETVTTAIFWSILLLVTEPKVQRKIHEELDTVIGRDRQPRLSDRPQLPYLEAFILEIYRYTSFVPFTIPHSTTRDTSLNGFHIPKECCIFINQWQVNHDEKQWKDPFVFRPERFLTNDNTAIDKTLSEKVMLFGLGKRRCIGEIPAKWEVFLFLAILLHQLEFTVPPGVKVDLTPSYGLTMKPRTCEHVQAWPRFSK
Method: (§1) The effect of the Zhicaowu–Hezi combination on CYP450 enzymes in rats was evaluated by examining the pharmacokinetics of theophylline (CYP1a2), metoprolol (CYP2d2), bupropion (CYP2b1), omeprazole (CYP2c13), chlorzoxazone (CYP2e1), testosterone (CYP3a1), and diclofenac (CYP2c11).
(§2) The collected blood was placed in sodium heparin-treated centrifuge tubes and centrifuged at 4°C for 10 min at 3,000 RPM. […] After 10 min of sedimentation, the supernatant was extracted through a 0.22-μm microporous membrane, 20 μL of which was injected into HPLC. The pharmacokinetic parameters of each probe drug were calculated using the non-atrial compartment model in Drug and Statistics software (DAS, 3.0; Shanghai, China).

CYP3a1 = target: T2, CYP3a1 (Rattus norvegicus, UniProt P04800); parameters: from tissue; host or cells: live male Sprague-Dawley rats (whole animal, liver and intestine); details: in vivo
T2 sequence (P04800 1-504): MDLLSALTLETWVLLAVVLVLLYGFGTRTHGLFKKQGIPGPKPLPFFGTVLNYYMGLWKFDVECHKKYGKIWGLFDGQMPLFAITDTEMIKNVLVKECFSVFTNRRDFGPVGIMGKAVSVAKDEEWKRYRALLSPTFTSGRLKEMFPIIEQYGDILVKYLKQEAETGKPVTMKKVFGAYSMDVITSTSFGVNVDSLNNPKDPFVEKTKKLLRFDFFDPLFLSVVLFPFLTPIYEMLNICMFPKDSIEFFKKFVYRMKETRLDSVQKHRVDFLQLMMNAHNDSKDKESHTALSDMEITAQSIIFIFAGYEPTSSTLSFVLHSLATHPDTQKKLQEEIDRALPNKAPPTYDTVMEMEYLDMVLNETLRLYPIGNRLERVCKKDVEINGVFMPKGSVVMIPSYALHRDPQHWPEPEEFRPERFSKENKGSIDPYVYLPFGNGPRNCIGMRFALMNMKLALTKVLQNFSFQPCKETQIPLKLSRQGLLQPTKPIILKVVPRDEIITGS
Method: as §1, §2

CYP2d2 = target: T3, CYP2d2 (Rattus norvegicus, UniProt P10634); parameters: from tissue; host or cells: live male Sprague-Dawley rats (whole animal, mainly liver); details: in vivo
T3 sequence (P10634 1-500): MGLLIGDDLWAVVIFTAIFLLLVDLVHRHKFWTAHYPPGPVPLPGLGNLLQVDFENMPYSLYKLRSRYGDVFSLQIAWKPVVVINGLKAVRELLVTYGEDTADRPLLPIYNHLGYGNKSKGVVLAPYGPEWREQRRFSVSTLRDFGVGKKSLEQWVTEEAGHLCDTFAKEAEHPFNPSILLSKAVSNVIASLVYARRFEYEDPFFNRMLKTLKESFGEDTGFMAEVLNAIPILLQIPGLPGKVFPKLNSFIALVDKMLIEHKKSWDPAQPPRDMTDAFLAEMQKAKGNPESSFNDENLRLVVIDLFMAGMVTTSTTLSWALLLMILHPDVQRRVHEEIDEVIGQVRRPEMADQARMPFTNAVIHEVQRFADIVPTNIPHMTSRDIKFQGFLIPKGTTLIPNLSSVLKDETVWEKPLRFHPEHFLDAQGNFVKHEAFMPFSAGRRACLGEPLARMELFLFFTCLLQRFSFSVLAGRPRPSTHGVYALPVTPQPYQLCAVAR
Method: as §1, §2

rat liver = format: in vivo; details: rats after final administration, H&E, Figure 7
Method: After the final administration, all rats were euthanized, and blood and liver samples were collected. The levels of biochemical indicators ALT, AST and ALP in the blood were detected according to the kit instruction. The liver histopathology was analyzed by H&E staining. Briefly, liver tissues were fixed in 10% paraformaldehyde (for over 24 h, 4°C), paraffin-embedded, and sectioned into 5-µm slices). […]

CYP2c13 = target: T4, CYP2c13 (Rattus norvegicus, UniProt P20814); parameters: from tissue; host or cells: live male Sprague-Dawley rats (whole animal, mainly liver); details: in vivo
T4 sequence (P20814 1-490): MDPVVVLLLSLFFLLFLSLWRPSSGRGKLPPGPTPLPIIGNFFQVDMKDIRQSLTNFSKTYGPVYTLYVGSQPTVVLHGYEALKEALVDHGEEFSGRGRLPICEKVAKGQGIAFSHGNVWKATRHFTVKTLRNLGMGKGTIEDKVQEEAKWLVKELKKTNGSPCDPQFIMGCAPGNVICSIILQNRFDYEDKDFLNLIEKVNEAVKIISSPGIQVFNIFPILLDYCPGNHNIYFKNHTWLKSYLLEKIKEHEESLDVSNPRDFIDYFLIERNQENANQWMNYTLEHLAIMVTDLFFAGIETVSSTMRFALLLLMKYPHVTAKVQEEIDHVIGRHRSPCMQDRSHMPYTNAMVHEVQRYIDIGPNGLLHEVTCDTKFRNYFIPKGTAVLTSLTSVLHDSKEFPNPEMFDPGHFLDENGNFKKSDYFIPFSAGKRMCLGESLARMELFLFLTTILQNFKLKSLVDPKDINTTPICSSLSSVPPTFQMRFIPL
Method: as §1, §2

CCC1(c2ccccc2)C(=O)NC(=O)NC1=O [P, phenobarbital sodium]
theophylline AUC(0-t) (CYP1a2): 12257 ± 742 ng·h/mL
theophylline AUC(0-∞) (CYP1a2): 13565 ± 801 ng·h/mL
theophylline CLz/F (CYP1a2): 7,744.326 ± 56.253 mL/h/kg
theophylline Cmax (CYP1a2): 1138 ± 201 ng/mL
theophylline t1/2 z (CYP1a2): 2.509 ± 0.436 h
testosterone AUC(0-t) (CYP3a1): 756 ± 48 ng·h/mL
testosterone AUC(0-∞) (CYP3a1): 907 ± 93 ng·h/mL
testosterone CLz/F (CYP3a1): 6,479.436 ± 351.908 mL/h/kg
testosterone Cmax (CYP3a1): 107 ± 15 ng/mL
testosterone t1/2 z (CYP3a1): 7.394 ± 0.958 h
metoprolol AUC(0-t) (CYP2d2): 3511 ± 445 ng·h/mL
metoprolol AUC(0-∞) (CYP2d2): 3623 ± 461 ng·h/mL
metoprolol CLz/F (CYP2d2): 2,495.074 ± 157.841 mL/h/kg
metoprolol Cmax (CYP2d2): 312 ± 41 ng/mL
metoprolol t1/2 z (CYP2d2): 2.532 ± 0.221 h
liver histopathology finding (rat liver): Scattered cellular edema
omeprazole AUC(0-t) (CYP2c13): 3040 ± 177 ng·h/mL
omeprazole AUC(0-∞) (CYP2c13): 3187 ± 239 ng·h/mL
omeprazole CLz/F (CYP2c13): 3,028.688 ± 253.193 mL/h/kg
omeprazole Cmax (CYP2c13): 535 ± 63 ng/mL
omeprazole t1/2 z (CYP2c13): 2.761 ± 0.227 h
